Test systems include SK-MEL-28 melanoma; EKVX NSCLC; HOP-92 NSCLC; UACC-257 melanoma; OVCAR-5 ovarian; K-562 leukemia; MDA-MB-435; T-47D breast; HS 578T breast; U251 CNS; LOX IMVI melanoma; HOP-62 NSCLC; ACHN renal; SK-OV-3 ovarian; RPMI-8226 leukemia; MALME-3M melanoma.
Experiment in all cases: growth of human tumour cells (NCI), 48 h

Each structure is given as a SMILES string.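 Results reflect a 48-hour exposure of cells in 96-well plates to compound at five concentrations. The concentration for full growth arrest is given as TGI.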

In the case of `O=[N+]([O-])c1ccc(OP(=O)(O)OCC2OC(CP(=O)(O)O)C(O)C2O)cc1` (configuration not stated), the TGI in the test with SK-MEL-28 melanoma, with EKVX NSCLC, with HOP-92 NSCLC, in the test on UACC-257 melanoma, in the test with OVCAR-5 ovarian and in the test with K-562 leukemia was more than 100 µM throughout. The TGI in the test on MDA-MB-435, in the test on T-47D breast, in the test with HS 578T breast, with U251 CNS, in the test on LOX IMVI melanoma and in the test on HOP-62 NSCLC was more than 100 µM each time. Besides, the TGI in the test on ACHN renal was more than 100 µM.
Consider `COC(=O)CCN1CCN(CCO)CC1C` (configuration not stated), for which the TGI in the test on SK-MEL-28 melanoma, in the test on EKVX NSCLC, with UACC-257 melanoma, in the test with K-562 leukemia, in the test with MDA-MB-435 and in the test with T-47D breast was more than 10 µM in each case. The TGI with HS 578T breast, in the test on U251 CNS, in the test with SK-OV-3 ovarian, with LOX IMVI melanoma, in the test with HOP-62 NSCLC and with ACHN renal was more than 10 µM throughout. Besides, the TGI in the test with RPMI-8226 leukemia and in the test with MALME-3M melanoma was more than 10 µM each time.
With `COc1ccc(C(=O)/C=C/c2ccc(OCC#N)cc2)cc1OC`, the TGI in the test on SK-MEL-28 melanoma was 29.5 µM; in the test on EKVX NSCLC, 36 µM; with HOP-92 NSCLC, 44.3 µM; in the test with K-562 leukemia, more than 100 µM; in the test on MDA-MB-435 it was 44.7 µM; with T-47D breast, 28.8 µM. The TGI in the test with HS 578T breast was more than 100 µM; in the test with U251 CNS, 29.6 µM; with SK-OV-3 ovarian, more than 100 µM; with HOP-62 NSCLC it was 36.4 µM; in the test on ACHN renal, 76.1 µM; in the test on MALME-3M melanoma it was 38.8 µM.
For the molecule `CC1=C(S(=O)c2ccc(C)cc2)CCC2(CCCCO2)O1` (configuration not stated), the TGI in the test on SK-MEL-28 melanoma, with EKVX NSCLC, with UACC-257 melanoma, in the test with OVCAR-5 ovarian, in the test with K-562 leukemia and with MDA-MB-435 was more than 100 µM each time. Besides, the TGI in the test on T-47D breast, in the test on HS 578T breast, in the test with U251 CNS, in the test with LOX IMVI melanoma, in the test on HOP-62 NSCLC and with ACHN renal was more than 100 µM each time. Further, the TGI with RPMI-8226 leukemia and in the test with MALME-3M melanoma was more than 100 µM in each case.
Take `Cc1ccc(O)c(-c2cc(-c3ccccc3)nc(/N=C\c3ccccc3)n2)c1`: the TGI in the test with SK-MEL-28 melanoma, with EKVX NSCLC, with HOP-92 NSCLC, in the test on UACC-257 melanoma, in the test on OVCAR-5 ovarian and in the test with K-562 leukemia was more than 100 µM in each case. The TGI with MDA-MB-435 was more than 100 µM; with T-47D breast it was more than 100 µM; in the test with HS 578T breast it was 79.8 µM; in the test on U251 CNS it was more than 100 µM; in the test with LOX IMVI melanoma, more than 100 µM; in the test with HOP-62 NSCLC, 58.8 µM. For the same molecule, the TGI is 29.8 µM in the test with ACHN renal and more than 100 µM in the test on MALME-3M melanoma.
Regarding `c1ccc2c(c1)ccc1nc3ccccn3c12`, the TGI in the test on SK-MEL-28 melanoma, with EKVX NSCLC, with HOP-92 NSCLC, in the test with UACC-257 melanoma, in the test on OVCAR-5 ovarian and with K-562 leukemia was more than 100 µM throughout. Also, the TGI in the test on MDA-MB-435, in the test on T-47D breast, with HS 578T breast, in the test on U251 CNS, with SK-OV-3 ovarian and in the test on HOP-62 NSCLC was more than 100 µM throughout. The TGI in the test with ACHN renal, in the test with RPMI-8226 leukemia and in the test with MALME-3M melanoma was more than 100 µM each time.
In the case of `CCCC(=O)n1[nH]c(=O)n(C(C)(C)C)c1=O`, the TGI in the test on SK-MEL-28 melanoma, in the test on EKVX NSCLC, with UACC-257 melanoma, with OVCAR-5 ovarian, in the test with K-562 leukemia and in the test with MDA-MB-435 was more than 100 µM each time. Further, the TGI in the test on T-47D breast, in the test with HS 578T breast, in the test with U251 CNS, in the test on SK-OV-3 ovarian, with LOX IMVI melanoma and in the test on HOP-62 NSCLC was more than 100 µM in each case. For the same molecule, the TGI in the test on ACHN renal, with RPMI-8226 leukemia and in the test with MALME-3M melanoma was more than 100 µM in each case.
Turning to `CC(=O)O[C@@H]1[C@@H](C)[C@]2(CC(c3ccoc3)OC2O)C2CCC3O[C@]3(C)[C@]2(C)[C@@H]1OC(C)=O` (some centres not stated), the TGI with SK-MEL-28 melanoma is 81.4 µM; in the test with EKVX NSCLC, more than 100 µM; in the test on HOP-92 NSCLC it was more than 100 µM; with UACC-257 melanoma, more than 100 µM; in the test with OVCAR-5 ovarian, more than 100 µM; in the test with MDA-MB-435 it was more than 100 µM. Also, the TGI in the test with T-47D breast was 86.8 µM; in the test with HS 578T breast, more than 100 µM; in the test with U251 CNS it was more than 100 µM; in the test with SK-OV-3 ovarian, more than 100 µM; in the test on LOX IMVI melanoma, 44.1 µM; with ACHN renal, more than 100 µM. In the test on RPMI-8226 leukemia, the TGI turned out to be 60.7 µM.
As to `O=C(Nc1ccccc1)c1cc2c(cc1Cl)SC(NNCCO)=NS2(=O)=O`, the TGI in the test on SK-MEL-28 melanoma, in the test on EKVX NSCLC, with HOP-92 NSCLC, with UACC-257 melanoma, in the test on K-562 leukemia and in the test on MDA-MB-435 was more than 100 µM throughout. In addition, the TGI in the test on T-47D breast, with HS 578T breast, in the test on U251 CNS, in the test with SK-OV-3 ovarian, in the test on LOX IMVI melanoma and with HOP-62 NSCLC was more than 100 µM in each case. The TGI in the test on ACHN renal and in the test with RPMI-8226 leukemia was more than 100 µM each time.
`CC1C2CC(CC2O)C1(C)C` (configuration not stated): the TGI in the test with SK-MEL-28 melanoma, with HOP-92 NSCLC, in the test on UACC-257 melanoma, in the test on OVCAR-5 ovarian, with K-562 leukemia and in the test with MDA-MB-435 was more than 100 µM throughout. In addition, the TGI with T-47D breast, in the test with HS 578T breast, in the test with U251 CNS, with SK-OV-3 ovarian, with HOP-62 NSCLC and with ACHN renal was more than 100 µM each time. The same molecule gave a TGI in the test on MALME-3M melanoma of more than 100 µM.

These data come from PubChem BioAssay (NCI).
